Experimental data taken from ChEMBL document CHEMBL3822442, “Synthesis and Pharmacological Characterization of Novel Glucagon-like Peptide-2 (GLP-2) Analogues with Low Systemic Clearance” (J Med Chem, 2016).
The source made the active and inactive calls. No cut-off for these calls is given here.

Assays:
[1] = target: T1, Glucagon-like peptide 2 receptor (Homo sapiens, UniProt O95838); assay: Agonist activity at human GLP2R expressed in HEK293 cells after 5 hrs by luciferase reporter gene assay; format: cell-based
T1 sequence (O95838 whole entry): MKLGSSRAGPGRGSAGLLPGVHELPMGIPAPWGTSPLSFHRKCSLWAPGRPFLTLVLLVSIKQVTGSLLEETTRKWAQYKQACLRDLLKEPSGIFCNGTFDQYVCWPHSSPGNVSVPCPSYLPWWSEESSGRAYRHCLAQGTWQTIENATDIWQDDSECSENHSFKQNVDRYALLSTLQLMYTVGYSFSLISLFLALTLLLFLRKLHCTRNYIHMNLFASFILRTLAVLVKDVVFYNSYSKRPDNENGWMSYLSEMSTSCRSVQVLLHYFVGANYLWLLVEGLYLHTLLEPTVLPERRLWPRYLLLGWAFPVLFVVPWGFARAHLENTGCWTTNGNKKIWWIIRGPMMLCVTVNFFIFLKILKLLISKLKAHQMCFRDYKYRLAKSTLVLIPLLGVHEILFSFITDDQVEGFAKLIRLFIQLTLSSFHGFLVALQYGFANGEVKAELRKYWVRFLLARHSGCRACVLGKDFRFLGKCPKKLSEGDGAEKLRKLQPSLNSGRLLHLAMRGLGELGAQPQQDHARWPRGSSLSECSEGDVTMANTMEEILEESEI

[2] = target: Glucagon-like peptide 1 receptor (Homo sapiens, UniProt P43220); assay: Agonist activity at human GLP1R expressed in HEK293 cells after 5 hrs by luciferase reporter gene assay; format: cell-based
[3] = target: T2, Glucagon-like peptide 2 receptor (Homo sapiens) (UniProt O95838); assay: Potency index, ratio of compound EC50 to compound 2 EC50 for human GLP2R expressed in HEK293 cells; format: cell-based
T2 sequence (whole entry): T1 sequence (O95838 whole entry)

HEK293 = assay: Selectivity ratio of EC50 for human GLP1R expressed in HEK293 cells to EC50 for human GLP2R expressed in HEK293; format: cell-based
[4] = target: Glucagon receptor (Homo sapiens) (UniProt P47871); assay: Agonist activity at human GCGR expressed in HEK293 cells after 5 hrs by luciferase reporter gene assay; format: cell-based
[5] = Systemic clearance in Sprague-Dawley rat at 0.2 mg/kg, iv through cassette dosing measured up to 300 mins by LC/MS/MS analysis; format: ADME, organism-based; settings: in vivo

Chain of Glucagon receptor (Homo sapiens) (P47871 whole entry): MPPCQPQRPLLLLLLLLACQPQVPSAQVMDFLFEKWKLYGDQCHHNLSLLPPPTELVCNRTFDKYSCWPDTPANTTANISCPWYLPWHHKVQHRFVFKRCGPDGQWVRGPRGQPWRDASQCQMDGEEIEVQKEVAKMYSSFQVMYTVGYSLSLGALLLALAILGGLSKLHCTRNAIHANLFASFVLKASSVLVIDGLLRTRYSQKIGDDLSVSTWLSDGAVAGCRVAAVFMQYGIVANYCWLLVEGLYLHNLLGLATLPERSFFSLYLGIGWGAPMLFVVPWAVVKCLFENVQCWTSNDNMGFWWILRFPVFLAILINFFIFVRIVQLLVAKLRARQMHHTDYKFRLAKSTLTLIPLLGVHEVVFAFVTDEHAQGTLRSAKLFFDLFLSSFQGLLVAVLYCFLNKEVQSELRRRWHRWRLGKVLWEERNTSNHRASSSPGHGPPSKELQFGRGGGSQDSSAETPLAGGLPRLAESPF
Chain of Glucagon-like peptide 1 receptor (P43220 whole entry): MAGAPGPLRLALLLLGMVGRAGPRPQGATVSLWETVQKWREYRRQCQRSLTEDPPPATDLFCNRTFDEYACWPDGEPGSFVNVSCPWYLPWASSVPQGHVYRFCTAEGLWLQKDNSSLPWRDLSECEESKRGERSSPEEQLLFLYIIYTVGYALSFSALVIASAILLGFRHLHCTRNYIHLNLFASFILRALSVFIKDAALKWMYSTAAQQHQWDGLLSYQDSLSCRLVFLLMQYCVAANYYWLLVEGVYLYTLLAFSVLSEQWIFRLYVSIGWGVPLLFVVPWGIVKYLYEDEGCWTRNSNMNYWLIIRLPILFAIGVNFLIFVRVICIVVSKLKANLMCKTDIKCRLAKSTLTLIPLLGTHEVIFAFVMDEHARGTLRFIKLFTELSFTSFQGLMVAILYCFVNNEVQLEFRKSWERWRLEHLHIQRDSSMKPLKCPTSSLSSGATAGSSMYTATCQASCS

| Compound | EC50 [1] [nM] | EC50 [2] [nM] | Ratio EC50 [3] | Activity [4] | clearance [5] [mL/min/kg] | Ratio EC50 (HEK293) |
| --- | --- | --- | --- | --- | --- | --- |
| H-HGDGSFSDEMNTILDNLAARDFINWLIQT-NH2 | 0.63 | > 1000 | 7 | – | – | > 1500 |
| CCCCC(NC(=O)[C@H](CCC(=O)O)NC(=O)[C@H](CC(=O)O)NC(=O)[C@@H](CO)NC(=O)[C@H](Cc1ccccc1)NC(=O)[C@H](CO)NC(=O)CNC(=O)[C@H](CC(=O)O)NC(=O)CNC(=O)[C@@H](N)Cc1cnc[nH]1)C(=O)N[C@@H](CC(N)=O)C(=O)N[C@H](C(=O)N[C@H](C(=O)N[C@@H](CC(C)C)C(=O)N[C@@H](CC(=O)O)C(=O)N[C@@H](CC(N)=O)C(=O)N[C@@H](CC(C)C)C(=O)N[C@@H](C)C(=O)N[C@@H](C)C(=O)N[C@@H](CCCNC(=N)N)C(=O)N[C@@H](CC(=O)O)C(=O)N[C@@H](Cc1ccccc1)C(=O)N[C@H](C(=O)N[C@@H](CC(N)=O)C(=O)N[C@@H](Cc1c[nH]c2ccccc12)C(=O)N[C@@H](CC(C)C)C(=O)N[C@H](C(=O)N[C@@H](CCC(N)=O)C(=O)N[C@H](C(=O)N[C@@H](CCCCN)C(N)=O)[C@@H](C)O)[C@@H](C)CC)[C@@H](C)CC)[C@@H](C)CC)[C@@H](C)O (some centres not stated) | 0.19 | > 1000 | 0.86 | inactive | – | > 5200 |
| CCCCC(NC(=O)[C@H](CCC(=O)O)NC(=O)[C@H](CC(=O)O)NC(=O)[C@H](CO)NC(=O)[C@H](Cc1ccccc1)NC(=O)[C@H](CO)NC(=O)CNC(=O)[C@H](CC(=O)O)NC(=O)CNC(=O)[C@@H](N)Cc1cnc[nH]1)C(=O)N[C@@H](CC(N)=O)C(=O)N[C@H](C(=O)N[C@H](C(=O)N[C@@H](CC(C)C)C(=O)N[C@@H](CC(=O)O)C(=O)N[C@H](CC(N)=O)C(=O)N[C@@H](CC(C)C)C(=O)N[C@@H](C)C(=O)N[C@@H](C)C(=O)N[C@@H](CCCNC(=N)N)C(=O)N[C@@H](CC(=O)O)C(=O)N[C@@H](Cc1ccccc1)C(=O)N[C@H](C(=O)N[C@@H](CC(N)=O)C(=O)N[C@@H](Cc1c[nH]c2ccccc12)C(=O)N[C@@H](CC(C)C)C(=O)N[C@H](C(=O)N[C@@H](CCC(N)=O)C(=O)N[C@H](C(=O)N[C@@H](CCCCN)C(N)=O)[C@@H](C)O)[C@@H](C)CC)[C@@H](C)CC)[C@@H](C)CC)[C@@H](C)O (some centres not stated) | 1.5 | > 1000 | 6.8 | inactive | – | > 660 |
| CCCCC(NC(=O)[C@H](CCC(=O)O)NC(=O)[C@@H](CC(=O)O)NC(=O)[C@H](CO)NC(=O)[C@H](Cc1ccccc1)NC(=O)[C@H](CO)NC(=O)CNC(=O)[C@H](CC(=O)O)NC(=O)CNC(=O)[C@@H](N)Cc1cnc[nH]1)C(=O)N[C@@H](CC(N)=O)C(=O)N[C@H](C(=O)N[C@H](C(=O)N[C@@H](CC(C)C)C(=O)N[C@@H](CC(=O)O)C(=O)N[C@@H](CC(N)=O)C(=O)N[C@@H](CC(C)C)C(=O)N[C@@H](C)C(=O)N[C@@H](C)C(=O)N[C@@H](CCCNC(=N)N)C(=O)N[C@@H](CC(=O)O)C(=O)N[C@@H](Cc1ccccc1)C(=O)N[C@H](C(=O)N[C@@H](CC(N)=O)C(=O)N[C@@H](Cc1c[nH]c2ccccc12)C(=O)N[C@@H](CC(C)C)C(=O)N[C@H](C(=O)N[C@@H](CCC(N)=O)C(=O)N[C@H](C(=O)N[C@@H](CCCCN)C(N)=O)[C@@H](C)O)[C@@H](C)CC)[C@@H](C)CC)[C@@H](C)CC)[C@@H](C)O (some centres not stated) | 16 | > 1000 | 73 | inactive | – | > 62 |
| H-HGDGSFSDEMNTILDNLAARDFINWLIQ-NH2 | 1.1 | > 1000 | 12 | – | – | > 900 |
| H-HGDGSFSDEMNTILDNLAARDFINW-NH2 | > 30 | > 1000 | > 330 | – | – | – |

Continued, in another order:

| EC50 [1] [nM] | EC50 [2] [nM] | Ratio EC50 [3] | Activity [4] | clearance [5] [mL/min/kg] | Compound | Ratio EC50 (HEK293) |
| --- | --- | --- | --- | --- | --- | --- |
| 0.43 | > 1000 | 2 | inactive | – | CCCCC(NC(=O)[C@H](CCC(=O)O)NC(=O)[C@H](CC(=O)O)NC(=O)[C@H](CO)NC(=O)[C@H](Cc1ccccc1)NC(=O)[C@H](CO)NC(=O)CNC(=O)[C@H](CC(=O)O)NC(=O)CNC(=O)[C@@H](N)Cc1cnc[nH]1)C(=O)N[C@@H](CC(N)=O)C(=O)N[C@H](C(=O)N[C@H](C(=O)N[C@@H](CC(C)C)C(=O)N[C@@H](CC(=O)O)C(=O)N[C@@H](CC(N)=O)C(=O)N[C@@H](CC(C)C)C(=O)N[C@@H](C)C(=O)N[C@@H](C)C(=O)N[C@@H](CCCNC(=N)N)C(=O)N[C@@H](CC(=O)O)C(=O)N[C@@H](Cc1ccccc1)C(=O)N[C@H](C(=O)N[C@H](CC(N)=O)C(=O)N[C@@H](Cc1c[nH]c2ccccc12)C(=O)N[C@@H](CC(C)C)C(=O)N[C@H](C(=O)N[C@@H](CCC(N)=O)C(=O)N[C@H](C(=O)N[C@@H](CCCCN)C(N)=O)[C@@H](C)O)[C@@H](C)CC)[C@@H](C)CC)[C@@H](C)CC)[C@@H](C)O (some centres not stated) | > 2300 |
| 0.66 | > 1000 | – | inactive | 9.7 | CCCCC(NC(=O)[C@H](CCC(=O)O)NC(=O)[C@H](CC(=O)O)NC(=O)[C@H](CO)NC(=O)[C@H](Cc1ccccc1)NC(=O)[C@H](CO)NC(=O)CNC(=O)[C@H](CC(=O)O)NC(=O)CNC(=O)[C@@H](N)Cc1cnc[nH]1)C(=O)N[C@H](CCN)C(=O)N[C@H](C(=O)N[C@H](C(=O)N[C@@H](CC(C)C)C(=O)N[C@@H](CC(=O)O)C(=O)N[C@@H](CC(N)=O)C(=O)N[C@@H](CC(C)C)C(=O)N[C@@H](C)C(=O)N[C@@H](C)C(=O)N[C@@H](CCCNC(=N)N)C(=O)N[C@@H](CC(=O)O)C(=O)N[C@@H](Cc1ccccc1)C(=O)N[C@H](C(=O)N[C@@H](CC(N)=O)C(=O)N[C@@H](Cc1c[nH]c2ccccc12)C(=O)N[C@@H](CC(C)C)C(=O)N[C@H](C(=O)N[C@@H](CCC(N)=O)C(=O)N[C@H](C(=O)N[C@@H](CCCCN)C(N)=O)[C@@H](C)O)[C@@H](C)CC)[C@@H](C)CC)[C@@H](C)CC)[C@@H](C)O (some centres not stated) | > 1500 |
| > 30 | > 1000 | > 130 | inactive | – | CCCCC(NC(=O)[C@H](CCC(=O)O)NC(=O)[C@H](CC(=O)O)NC(=O)[C@H](CO)NC(=O)[C@H](Cc1ccccc1)NC(=O)[C@H](CO)NC(=O)CNC(=O)[C@H](CC(=O)O)NC(=O)CNC(=O)[C@@H](N)Cc1cnc[nH]1)C(=O)N[C@@H](CC(N)=O)C(=O)N[C@H](C(=O)N[C@H](C(=O)N[C@@H](CC(C)C)C(=O)N[C@@H](CC(=O)O)C(=O)N[C@@H](CC(N)=O)C(=O)N[C@@H](CC(C)C)C(=O)N[C@@H](C)C(=O)N[C@@H](C)C(=O)N[C@@H](CCCNC(=N)N)C(=O)N[C@@H](CC(=O)O)C(=O)N[C@@H](Cc1ccccc1)C(=O)N[C@H](C(=O)N[C@@H](CC(N)=O)C(=O)N[C@H](Cc1c[nH]c2ccccc12)C(=O)N[C@@H](CC(C)C)C(=O)N[C@H](C(=O)N[C@@H](CCC(N)=O)C(=O)N[C@H](C(=O)N[C@@H](CCCCN)C(N)=O)[C@@H](C)O)[C@@H](C)CC)[C@@H](C)CC)[C@@H](C)CC)[C@@H](C)O (some centres not stated) | – |
| 0.48 | > 1000 | 5.3 | – | – | H-HGDGSFSDEMNTILDNLAARDFINWLIQTKI-NH2 | > 2000 |
| 0.2 | > 1000 | – | inactive | 0.73 | CCCCC(NC(=O)[C@H](CCC(=O)O)NC(=O)[C@H](CC(=O)O)NC(=O)[C@H](CO)NC(=O)[C@H](Cc1ccccc1)NC(=O)[C@H](CO)NC(=O)CNC(=O)[C@H](CC(=O)O)NC(=O)CNC(=O)[C@@H](N)Cc1cnc[nH]1)C(=O)N[C@H](Cc1cnc[nH]1)C(=O)N[C@H](C(=O)N[C@H](C(=O)N[C@@H](CC(C)C)C(=O)N[C@@H](CC(=O)O)C(=O)N[C@@H](CC(N)=O)C(=O)N[C@@H](CC(C)C)C(=O)N[C@@H](C)C(=O)N[C@@H](C)C(=O)N[C@@H](CCCNC(=N)N)C(=O)N[C@@H](CC(=O)O)C(=O)N[C@@H](Cc1ccccc1)C(=O)N[C@H](C(=O)N[C@@H](CC(N)=O)C(=O)N[C@@H](Cc1c[nH]c2ccccc12)C(=O)N[C@@H](CC(C)C)C(=O)N[C@H](C(=O)N[C@@H](CCC(N)=O)C(=O)N[C@H](C(=O)N[C@@H](CCCCN)C(N)=O)[C@@H](C)O)[C@@H](C)CC)[C@@H](C)CC)[C@@H](C)CC)[C@@H](C)O (some centres not stated) | > 5000 |
| 1.1 | > 1000 | 12 | – | – | H-HGDGSFSDEMNTILDNLAARDFINWLI-NH2 | > 900 |
| 0.29 | > 1000 | 3.2 | – | – | H-HGDGSFSDEMNTILDNLAARDFINWLIQTKIT-NH2 | > 3400 |
